Reference: patent US8063099B2, “Trans-3-aza-bicyclo[3.1.0]hexane derivatives” (Actelion Pharmaceuticals Ltd., priority 2007, dated 2011)
Read-outs that look alike come from different tables or passages of the source.

Experiments:
human orexin-1 receptor = target: T1, human orexin-1 receptor (Homo sapiens, UniProt O43613); test: Intracellular calcium measurements (FLIPR), orexin receptor antagonistic activity; type: cell-based; details: CHO cells expressing human orexin-1 receptor, 3 nM orexin-A, read-out: OX1 IC50
T1 construct: expressed in transfected cells; host or cells: Chinese hamster ovary (CHO) cells, G418 selection
T1 sequence (O43613 1-425): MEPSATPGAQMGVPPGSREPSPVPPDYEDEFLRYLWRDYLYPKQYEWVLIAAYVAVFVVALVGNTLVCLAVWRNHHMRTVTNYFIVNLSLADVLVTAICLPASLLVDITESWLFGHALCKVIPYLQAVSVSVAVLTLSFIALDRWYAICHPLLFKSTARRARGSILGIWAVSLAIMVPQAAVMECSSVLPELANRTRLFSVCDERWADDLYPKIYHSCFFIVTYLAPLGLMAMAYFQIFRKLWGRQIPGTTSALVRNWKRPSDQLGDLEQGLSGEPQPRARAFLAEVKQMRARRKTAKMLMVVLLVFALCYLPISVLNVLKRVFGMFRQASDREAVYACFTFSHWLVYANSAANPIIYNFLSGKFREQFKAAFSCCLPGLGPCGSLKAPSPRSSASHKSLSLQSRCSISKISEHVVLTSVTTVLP
Description: (§1) The orexin receptor antagonistic activity of the compounds of formula (I) is determined in accordance with one of the following experimental methods.
(§2) Intracellular Calcium Measurements:
(§3) Chinese hamster ovary (CHO) cells expressing the human orexin-1 receptor and the human orexin-2 receptor, respectively, are grown in culture medium (Ham F-12 with L-Glutamine) containing 300 μg/ml G418, 100 U/ml penicillin, 100 μg/ml streptomycin and 10% heat inactivated fetal calf serum (FCS). The cells are seeded at 20'000 cells/well into 384-well black clear bottom sterile plates (Greiner). The seeded plates are incubated overnight at 37° C. in 5% CO2.
(§4) Human orexin-A as an agonist is prepared as 1 mM stock solution in MeOH:water (1:1), diluted in HBSS containing 0.1% bovine serum albumin (BSA), NaHCO3:0.375 g/l and 20 mM HEPES for use in the assay at a final concentration of 3 nM.
(§5) Antagonists are prepared as 10 mM stock solution in DMSO, then diluted in 384-well plates, first in DMSO, then in HBSS containing 0.1% bovine serum albumin (BSA), NaHCO3: 0.375 g/l and 20 mM HEPES.
(§6) On the day of the assay, 50 μl of staining buffer (HBSS containing 1% FCS, 20 mM HEPES, NaHCO3: 0.375 g/l, 5 mM probenecid (Sigma) and 3 μM of the fluorescent calcium indicator fluo-4 AM (1 mM stock solution in DMSO, containing 10% pluronic) is added to each well.
(§7) The 384-well cell-plates are incubated for 50 min at 37° C. in 5% CO2 followed by equilibration at RT for 30-120 min before measurement.
(§8) Within the Fluorescent Imaging Plate Reader (FLIPR2 or FLIPR Tetra, Molecular Devices), antagonists are added to the plate in a volume of 10 μl/well, incubated for 10 min and finally 10 μl/well of agonist is added. Fluorescence is measured for each well at 1 second intervals, and the height of each fluorescence peak is compared to the height of the fluorescence peak induced by 3 nM orexin-A with vehicle in place of antagonist. For each antagonist, the IC50 value (the concentration of compound needed to inhibit 50% of the agonistic response) is determined. With the FLIPR Tetra, non-optimized and optimized conditions were used. Optimized conditions were achieved by adjustment of pipetting speed and cell splitting regime. The calculated IC50 values of the compounds may fluctuate depending on the daily cellular assay performance. Fluctuations of this kind are known to those skilled in the art.

human orexin-2 receptor = target: T2, human orexin-2 receptor (Homo sapiens, UniProt O43614); test: as above; type: cell-based; details: CHO cells expressing human orexin-2 receptor, 3 nM orexin-A, read-out: OX2 IC50
T2 construct: expressed in transfected cells; host or cells: Chinese hamster ovary (CHO) cells, G418 selection
T2 sequence (O43614 1-444): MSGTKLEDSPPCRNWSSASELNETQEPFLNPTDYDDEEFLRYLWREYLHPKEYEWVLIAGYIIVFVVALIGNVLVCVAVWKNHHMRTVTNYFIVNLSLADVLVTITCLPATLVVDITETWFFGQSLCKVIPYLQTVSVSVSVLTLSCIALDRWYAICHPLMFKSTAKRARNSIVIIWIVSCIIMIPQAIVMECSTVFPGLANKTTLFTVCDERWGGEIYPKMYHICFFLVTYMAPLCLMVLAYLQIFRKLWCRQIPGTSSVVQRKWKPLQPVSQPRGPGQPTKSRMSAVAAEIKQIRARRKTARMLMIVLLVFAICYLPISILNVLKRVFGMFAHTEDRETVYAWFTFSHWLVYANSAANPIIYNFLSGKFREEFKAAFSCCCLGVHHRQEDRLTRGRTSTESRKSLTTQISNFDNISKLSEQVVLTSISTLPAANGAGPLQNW
Description: as §1, §2, §3, §4, §5, §6, §7, §8

[1] = FLIPR Tetra, optimized conditions
[2] = FLIPR Tetra, non-optimized conditions

Row | SMILES | IC50 (human orexin-1 receptor; FLIPR2) [nM] | IC50 (human orexin-2 receptor; FLIPR2) [nM] | other results
1 | Cc1cccc(-c2sc(C)nc2C(=O)N2C[C@@H]3C[C@@H]3[C@H]2CNC(=O)c2c(C)noc2C)c1 [Example 51, 3,5-Dimethyl-isoxazole-4-carboxylic Acid[(1S,2S,5R)-3-(2-methyl-5-m-tolyl-thiazole-4-carbonyl)-3-aza-bicyclo[3.1.0]hex-2-ylmethyl]-amide] | 81 | 41 | –
2 | Cc1cccc(-c2sccc2C(=O)N2C[C@@H]3C[C@@H]3[C@H]2CNC(=O)c2cccc3oc(C)nc23)c1 [Example 297, 2-Methyl-benzoxazole-4-carboxylic acid [(1S,2S,5R)-3-(2-m-tolyl-thiophene-3-carbonyl)-3-aza-bicyclo[3.1.0]hex-2-ylmethyl]-amide] | – | – | IC50 (human orexin-1 receptor; [1]): 83 nM; IC50 (human orexin-2 receptor; [1]): 16 nM
3 | CN(C)c1nc(C(=O)N2C[C@@H]3C[C@@H]3[C@H]2CNC(=O)c2scc3c2OCCO3)c(-c2cccc(F)c2)s1 [Example 220, 2,3-Dihydro-thieno[3,4-b][1,4]dioxine-5-carboxylic acid {(1S,2S,5R)-3-[2-dimethylamino-5-(3-fluoro-phenyl)-thiazole-4-carbonyl]-3-aza-bicyclo[3.1.0]hex-2-ylmethyl}-amide] | – | – | IC50 (human orexin-1 receptor; [2]): 115 nM; IC50 (human orexin-2 receptor; [2]): 48 nM
4 | Cc1cccc(-c2sccc2C(=O)N2C[C@@H]3C[C@@H]3[C@H]2CNC(=O)c2cc3occc3n2C)c1 [Example 282, 4-Methyl-4H-furo[3,2-b]pyrrole-5-carboxylic acid [(1S,2S,5R)-3-(2-m-tolyl-thiophene-3-carbonyl)-3-aza-bicyclo[3.1.0]hex-2-ylmethyl]-amide] | – | – | IC50 (human orexin-1 receptor; [1]): 117 nM; IC50 (human orexin-2 receptor; [1]): 32 nM
5 | Cc1cccc(-c2sc(C)nc2C(=O)N2C[C@@H]3C[C@@H]3[C@H]2CNC(=O)c2nccc3ccccc23)c1 [Example 54, Isoquinoline-1-carboxylic Acid[(1S,2S,5R)-3-(2-methyl-5-m-tolyl-thiazole-4-carbonyl)-3-aza-bicyclo[3.1.0]hex-2-ylmethyl]-amide] | 26 | 18 | –
6 | Cc1nc2sccn2c1C(=O)NC[C@@H]1[C@H]2C[C@H]2CN1C(=O)c1ccccc1-c1cccs1 [Example 32, 6-Methyl-imidazo[2,1-b]thiazole-5-carboxylic acid[(1S,2S,5R)-3-(2-thiophen-2-yl-benzoyl)-3-aza-bicyclo[3.1.0]hex-2-ylmethyl]-amide] | 15 | 55 | –
7 | Cc1ccc(-c2sccc2C(=O)N2C[C@@H]3C[C@@H]3[C@H]2CNC(=O)c2cccc3c2NCCO3)cc1 [Example 266, 3,4-Dihydro-2H-benzo[1,4]oxazine-5-carboxylic acid [(1S,2S,5R)-3-(2-p-tolyl-thiophene-3-carbonyl)-3-aza-bicyclo[3.1.0]hex-2-ylmethyl]-amide] | – | – | IC50 (human orexin-1 receptor; [1]): 65 nM; IC50 (human orexin-2 receptor; [1]): 19 nM
8 | Cc1cccc(-c2sc(Br)nc2C(=O)N2C[C@@H]3C[C@@H]3[C@H]2CNC(=O)c2c(C)nc3sccn23)c1 [Example 29, 6-Methyl-imidazo[2,1-b]thiazole-5-carboxylic acid[(1S,2S,5R)-3-(2-bromo-5-m-tolyl-thiazole-4-carbonyl)-3-aza-bicyclo[3.1.0]hex-2-ylmethyl]-amide] | 4 | 27 | –
9 | Cc1cccc(-c2sc(C)nc2C(=O)N2C[C@@H]3C[C@@H]3[C@H]2CNC(=O)c2n[nH]c3ccccc23)c1 [Example 58, 1H-Indazole-3-carboxylic Acid[(1S,2S,5R)-3-(2-methyl-5-m-tolyl-thiazole-4-carbonyl)-3-aza-bicyclo[3.1.0]hex-2-ylmethyl]-amide] | 37 | 57 | –
10 | Cc1cccc(-c2sc(C)nc2C(=O)N2C[C@@H]3C[C@@H]3[C@H]2CNC(=O)c2ccn3ccsc23)c1 [Example 260, Pyrrolo[2,1-b]thiazole-7-carboxylic acid [(1S,2S,5R)-3-(2-methyl-5-m-tolyl-thiazole-4-carbonyl)-3-aza-bicyclo[3.1.0]hex-2-ylmethyl]-amide] | – | – | IC50 (human orexin-1 receptor; [1]): 16 nM; IC50 (human orexin-2 receptor; [1]): 31 nM
11 | CCn1nc(C)cc1C(=O)NC[C@@H]1[C@H]2C[C@H]2CN1C(=O)c1nc(C)sc1-c1cccc(Cl)c1 [Example 80, 2-Ethyl-5-methyl-2H-pyrazole-3-carboxylic Acid{(1S,2S,5R)-3-[5-(3-chloro-phenyl)-2-methyl-thiazole-4-carbonyl]-3-aza-bicyclo[3.1.0]hex-2-ylmethyl}-amide] | 29 | 10 | –
12 | Cc1cccc(-c2sc(C)nc2C(=O)N2C[C@@H]3C[C@@H]3[C@H]2CNC(=O)c2cccc3sc(Cl)nc23)c1 [Example 299, 2-Chloro-benzothiazole-4-carboxylic Acid[(1S,2S,5R)-3-(2-methyl-5-m-tolyl-thiazole-4-carbonyl)-3-aza-bicyclo[3.1.0]hex-2-ylmethyl]-amide] | – | – | IC50 (human orexin-1 receptor; [1]): 28 nM; IC50 (human orexin-2 receptor; [1]): 14 nM

Now from value to compound, other results behind:

Row | IC50 (human orexin-1 receptor; FLIPR2) [nM] | IC50 (human orexin-2 receptor; FLIPR2) [nM] | SMILES | other results
13 | 110 | 61 | Cc1cccc(-c2sc(C)nc2C(=O)N2C[C@@H]3C[C@@H]3[C@H]2CNC(=O)c2cccc(C(F)(F)F)c2)c1 [Example 45, N-[(1S,2S,5R)-3-(2-Methyl-5-m-tolyl-thiazole-4-carbonyl)-3-aza-bicyclo[3.1.0]hex-2-ylmethyl]-3-trifluoromethyl-benzamide] | –
14 | 35 | 338 | Cc1ncc(C(=O)N2C[C@@H]3C[C@@H]3[C@H]2CNC(=O)c2c(C)nc3sccn23)c(-c2ccccc2)n1 [Example 23, 6-Methyl-imidazo[2,1-b]thiazole-5-carboxylic Acid[(1S,2S,5R)-3-(2-methyl-4-phenyl-pyrimidine-5-carbonyl)-3-aza-bicyclo[3.1.0]hex-2-ylmethyl]-amide] | –
15 | 115 | 12 | Nc1nc(C(=O)N2C[C@@H]3C[C@@H]3[C@H]2CNC(=O)c2nccc3ccccc23)c(-c2cccc(F)c2)s1 [Example 112, Isoquinoline-1-carboxylic Acid{(1S,2S,5R)-3-[2-amino-5-(3-fluoro-phenyl)-thiazole-4-carbonyl]-3-aza-bicyclo[3.1.0]hex-2-ylmethyl}-amide] | –
16 | 178 | 48 | Cn1cc(C(=O)NC[C@@H]2[C@H]3C[C@H]3CN2C(=O)c2nc(N)sc2-c2cccc(F)c2)c2ccccc21 [Example 115, 1-Methyl-1H-indole-3-carboxylic Acid{(1S,2S,5R)-3-[2-amino-5-(3-fluoro-phenyl)-thiazole-4-carbonyl]-3-aza-bicyclo[3.1.0]hex-2-ylmethyl}-amide] | –
17 | 26 | 19 | Cc1cccc(-c2sc(C)nc2C(=O)N2C[C@@H]3C[C@@H]3[C@H]2CNC(=O)c2cccc3c2OC(C)(C)C3)c1 [Example 43, 2,2-Dimethyl-2,3-dihydro-benzofuran-7-carboxylic acid[(1S,2S,5R)-3-(2-methyl-5-m-tolyl-thiazole-4-carbonyl)-3-aza-bicyclo[3.1.0]hex-2-ylmethyl]-amide] | –
